Measured values taken from publication PMC4823711, “Allosteric Partial Inhibition of Monomeric Proteases. Sulfated Coumarins Induce Regulation, not just Inhibition, of Thrombin” (Scientific Reports, 2016).
Entries after “also recorded” stand apart in the source; their conditions may differ. One block for each molecule: values may come before it.

Legend:
thrombin [1] = target: thrombin (Homo sapiens, UniProt P00734); assay: Chromogenic substrate hydrolysis assay, thrombin inhibition (Spectrozyme TH); type: biochemical; parameters: 6 nM plasma α-thrombin; purchased Haematologic Technologies (Essex Junction, VT); settings: for thrombin inhibition (in words): up to 250 μM; for efficacy of thrombin inhibition (ΔY) / IC50: pH 7.4, 25 °C; for efficacy of thrombin inhibition (ΔY): at saturation; for IC50: read-out: IC50 against thrombin
Method: Chromogenic substrate hydrolysis assay was used to measure potency of inhibition, as previously reported. The assay was performed using Flexstation III (Molecular Devices, Sunnyvale, CA) by monitoring substrate hydrolysis at 405 nm. For thrombin and its mutants, 180 μL of buffer (20 mM Tris-HCl, 100 mM NaCl, 2.5 mM CaCl2, 0.1% (polyethylene glycol) PEG 8000, pH 7.4) was added to each well followed by 5 μL of 240 nM thrombin and 10 μL of sulfated coumarin in DMSO to give 0.002 to 250 μM final concentration (or 10 μL of DMSO alone). After incubation for 10 min at 25 °C, 5 μL of 2 mM Spectrozyme TH was added to each well simultaneously and allowed to react for 60 seconds at 25 °C while simultaneously monitoring the reaction to obtain the rate of increase in A405. Identical experimental conditions were used for reactions in the presence of antithrombin, except for 100 nM of antithrombin added prior to the addition of the substrate.
For factor XIa inhibition studies, 85 μL of buffer (50 mM Tris-HCl, 150 mM NaCl, 0.1% PEG 8000, 0.02% Tween 80, pH 7.4) was added to each well, followed by 7 μL of 15.3 nM enzyme and 3 μL of sulfated coumarin (3.75–500 μM final concentration) and incubated for 10 min at 37 °C. After the incubation period, 5 μL of 6.9 mM S-2366 was added to each well simultaneously and allowed to react for 300 sec at 37 °C. For factor Xa assay, 180 μL of buffer (20 mM Tris-HCl, 100 mM NaCl, 2.5 mM CaCl2, 0.1% PEG 8000, 0.02% Tween 80, pH 7.4) was added to each well followed by 5 μL of 43.5 nM enzyme, 10 μL of sulfated coumarin (0.002–250 μM final concentration). After a 10 min incubation, 5 μL of 5 mM Spectrozyme FXa was added to each well simultaneously and allowed to react for 300 seconds at 37 °C. The slopes generated from each experiment were used to calculate the fractional residual activity (Y) at each concentration of the inhibitor, and analyzed using logistic equation 1, in which YM is the maximum efficacy, Y0 is minimum efficacy and HS is the Hill slope.

thrombin [2] = settings: cited from earlier work; for efficacy of thrombin inhibition (ΔY): orthosteric inhibitors
thrombin [3] = target: thrombin; parameters: method as in PMID 2007587; settings: read-out: affinity for thrombin; cited from earlier work

Molecule: O=c1oc2cc(OS(=O)(=O)O)ccc2c(-c2ccccc2)c1-c1ccc(OS(=O)(=O)O)cc1 [2y]
thrombin inhibition (in words) (thrombin [1]): not all 4-aryl derivatives were active; also recorded: complete absence of inhibition potential

Molecule: O=c1oc2cc(OCCCn3cc(COc4ccc5c(-c6ccccc6)c(-c6ccc(OS(=O)(=O)O)cc6)c(=O)oc5c4)nn3)ccc2c(-c2ccccc2)c1-c1ccc(OS(=O)(=O)O)cc1 [3a]
efficacy of thrombin inhibition (ΔY) (thrombin [1]): 73%
IC50 (thrombin [1]): ≤ 1 µM

Molecule: O=c1oc2cc(OCCCCn3cc(COc4ccc5c(-c6ccccc6)c(-c6ccc(OS(=O)(=O)O)cc6)c(=O)oc5c4)nn3)ccc2c(-c2ccccc2)c1-c1ccc(OS(=O)(=O)O)cc1 [3b]
efficacy of thrombin inhibition (ΔY) (thrombin [1]): 58%
IC50 (thrombin [1]): ≤ 1 µM

Molecule: O=c1oc2cc(OCCCn3cc(COc4ccc5cc(-c6ccc(OS(=O)(=O)O)cc6)c(=O)oc5c4)nn3)ccc2cc1-c1ccc(OS(=O)(=O)O)cc1 [3c]
efficacy of thrombin inhibition (ΔY) (thrombin [1]): 60%

Molecule: CC1CNc2c(cccc2S(=O)(=O)N[C@@H](CCCNC(=N)N)C(=O)N2CC[C@@H](C)C[C@@H]2C(=O)O)C1 (stereo partly shown) [argatroban]
efficacy of thrombin inhibition (ΔY) (thrombin [2]): 100%

Molecule: [H]/N=C(/N)c1ccc(NCc2nc3cc(C(=O)N(CCC(=O)O)c4ccccn4)ccc3n2C)cc1 [dabigatran]
efficacy of thrombin inhibition (ΔY) (thrombin [2]): 100%

Molecule: Cc1ccc(C(=O)Nc2ccc(S(=O)(=O)O)c3cc(S(=O)(=O)O)cc(S(=O)(=O)O)c23)cc1NC(=O)c1cccc(NC(=O)Nc2cccc(C(=O)Nc3cc(C(=O)Nc4ccc(S(=O)(=O)O)c5cc(S(=O)(=O)O)cc(S(=O)(=O)O)c45)ccc3C)c2)c1 [suramin]
IC50 (thrombin [2]; read-out: IC50 of thrombin inhibition): 20 to 40 µM

Molecule: Heparin hexasaccharide
thrombin inhibition (in words) (thrombin [2]): not an inhibitor
Kd (thrombin [3]): ~8 µM

Second part, the molecule after the results:

thrombin inhibition (in words) (thrombin [1]): not all 4-aryl derivatives were active
Molecule: O=c1oc2cc(OS(=O)(=O)O)ccc2c(-c2ccccc2)c1-c1ccccc1Cl [2d]

thrombin inhibition (in words) (thrombin [1]): active
Molecule: O=c1oc2cc(OS(=O)(=O)O)ccc2c(-c2ccccc2)c1-c1cccc(Cl)c1 [2e]

thrombin inhibition (in words) (thrombin [1]): active
Molecule: O=c1oc2cc(OS(=O)(=O)O)ccc2c(-c2ccccc2)c1-c1ccc(Cl)cc1Cl [2k]

thrombin inhibition (in words) (thrombin [1]): not all 4-aryl derivatives were active
Molecule: O=c1oc2ccc(OS(=O)(=O)O)cc2c(-c2ccccc2)c1-c1ccc(Cl)cc1 [2l]

thrombin inhibition (in words) (thrombin [1]): not all 4-aryl derivatives were active
Molecule: O=c1oc2cc(OS(=O)(=O)O)ccc2c(-c2ccccc2)c1-c1ccc(Br)cc1 [2o]

thrombin inhibition (in words) (thrombin [1]): active
Molecule: O=c1oc2cc(OS(=O)(=O)O)ccc2c(Cc2ccc(Cl)cc2)c1-c1ccccc1 [2p]

thrombin inhibition (in words) (thrombin [1]): not all 4-aryl derivatives were active
Molecule: O=c1oc2cc(OS(=O)(=O)O)ccc2c(-c2ccccc2)c1-c1ccc(O)c(OS(=O)(=O)O)c1 [2w]

thrombin inhibition (in words) (thrombin [1]): not all 4-aryl derivatives were active
Molecule: O=c1oc2c(Cl)cc(Cl)cc2c(-c2ccccc2)c1-c1ccc(OS(=O)(=O)O)cc1 [2x]
